# Data from US20220202739A1, “ENDOCANNABINOID MIMETIC AND ANTI-INFLAMMATORY COMPOUND CONTAINING COMPOSITIONS, METHODS OF PREPARATION AND USES THEREOF” (priority 2019, published 2022).
# Test system: COL1A1
# Assay: Gene expression custom microarray, pooled keratinocyte line (Example 3): COL1A1
# Type: cell-based, human
# Details: pooled keratinocytes, 20 ppm, 24 hr
# Protocol: Cell cultures: Received and began culture of pooled keratinocyte line from Promocell (C-12006; Lot #448Z026). Cells were seeded into a 75 cm2 flask and 2 6 well dishes for expansion and exposure per manufacturer's protocol using Keratinocyte Growth Medium (C2011B), Keratinocyte Supplement Mix (C39016) and CaCl (C34005). 2 ml of prepared solution were added to each of the 6 wells and 7 ml was added to the 75 cm2 flask.
# Experimental phase: When the appropriate quantity of cells were grown, they were detached as described above, but at the final step were seeded into each well of one or more 6 well dishes. Each well received 2 ml of the cells suspended in suspension so they were seeded equally. The dishes were returned to the incubator until 85-95% confluency is reached.
# It was at this stage that all wells were rinsed in PBS after aspirating the growth media. The compound(s) to be tested were previously mixed into a suitable solvent (e.g., DMSO or ethanol) that can be diluted to the desired concentration of test compound (10 μl) in the culture wells without exceeding maximum solvent concentrations and adversely effecting cell viability, and mixed with Basal Keratinocyte Media. NOTE: Standard maximum levels of solvent are 0.1% for DMSO and 0.5% for ETOH. The concentration for each tested compound/natural extract is generally listed in the left-hand column of Table 4. For certain compositions (e.g., compositions 15 and 16), other concentrations were used and are noted in the body of Table 4.
# Every 2 wells on the 6 well plate served as a biological replicate for the purposes of RNA isolation and genetic expression evaluations making each 6 well dish an n=3 for the test compound contained in the media. […]
# At the end of the 24 hr time period, the plates were removed from the incubator, the test media aspirated, and the cells rinsed with PBS. […] Allow 1 minute for saturation of the membrane and then centrifuge for 2 minutes to complete the RNA elution. • Quantify the quantity of RNA and store at −20 C° until use (no more than 1 month) […]
row,SMILES,"↑COL1A1 gene expression, fold increase or decrease vs untreated cells [fold]"
1,"C=C(C)[C@@H]1CCC(C)=C[C@H]1c1c(O)cc(CCCCC)cc1O [CBD, cannabidiol, reference compound]",1.6
2,CCCCCCCCCCCCCCCC(=O)NCCO [N-palmitoylethanolamide],−2
3,CC(C)[C@]12O[C@H]1[C@@H]1O[C@]13[C@]1(O[C@H]1C[C@H]1C4=C(CC[C@@]13C)C(=O)OC4)[C@@H]2O [Triptolide],−1.3
